From patent US4062853A, “Chloro-pyridinyloxymethyl esters of thiocyanic acid” (The Dow Chemical Company, priority 1973, dated 1977)
Values after ≈ are worked out from the molar mass of the structure shown.

What was measured:
Type in all cases: cell-based
Pullularia pullulans = assay: conventional agar dilution test, fungicidal activity, Pullularia pullulans; conditions: complete growth inhibition, read-out: Minimum Inhibitory Concentration
Excerpt: (§1) In representative operations, the products of the invention when tested for fungicidal activity using conventional agar dilution tests gave complete growth inhibition against the following organisms at the indicated concentrations in parts per million: […]

Trichoderma sp. 42 = assay: conventional agar dilution test, fungicidal activity, Trichoderma sp. 42; conditions: complete growth inhibition, read-out: Minimum Inhibitory Concentration
Excerpt: as §1

Aspergillus terreus = assay: conventional agar dilution test, fungicidal activity, Aspergillus terreus; conditions: complete growth inhibition, read-out: Minimum Inhibitory Concentration
Excerpt: as §1

[1] = tested on: Trichophyton mentagrophytes; assay: conventional agar dilution test, fungicidal activity, Trichophyton mentagrophytes; conditions: complete growth inhibition, read-out: Minimum Inhibitory Concentration
Excerpt: as §1

Candida albicans = assay: conventional agar dilution test, fungicidal activity, Candida albicans; conditions: complete growth inhibition, read-out: Minimum Inhibitory Concentration
Excerpt: as §1

Ceratocystis ips = assay: conventional agar dilution test, fungicidal activity, Ceratocystis ips; conditions: complete growth inhibition, read-out: Minimum Inhibitory Concentration
Excerpt: as §1

Rhizopus nigricans = assay: conventional agar dilution test, fungicidal activity, Rhizopus nigricans; conditions: Rhizopus stolonifer, complete growth inhibition, read-out: Minimum Inhibitory Concentration
Excerpt: as §1

Candida pelliculosa = assay: conventional agar dilution test, fungicidal activity, Candida pelliculosa; conditions: Hansenula anomala, complete growth inhibition, read-out: Minimum Inhibitory Concentration
Excerpt: as §1

| SMILES | MIC (Pullularia pullulans) [µg/mL] | MIC (Trichoderma sp. 42) [µg/mL] | MIC (Aspergillus terreus) [µg/mL] | MIC [1] [µg/mL] | MIC (Candida albicans) [µg/mL] | MIC (Ceratocystis ips) [µg/mL] | MIC (Rhizopus nigricans) [µg/mL] | MIC (Candida pelliculosa) [µg/mL] |
| --- | --- | --- | --- | --- | --- | --- | --- | --- |
| N#CSCOc1nc(Cl)c(Cl)cc1Cl [I, [(3,5,6-trichloro-2-pyridinyl)oxy]methyl thiocyanate] | 10 (≈ 37.1 µM) | 10 (≈ 37.1 µM) | 1 (≈ 3.71 µM) | 1 (≈ 3.71 µM) | 10 (≈ 37.1 µM) | 1 (≈ 3.71 µM) | 10 (≈ 37.1 µM) | 10 (≈ 37.1 µM) |
| N#CSCOc1c(Cl)c(Cl)nc(Cl)c1Cl [II, Thiocyanic acid, [(2,3,5,6-tetrachloro-4-pyridinyl)oxy]-methyl ester] | 100 (≈ 329 µM) | > 100 | 10 (≈ 32.9 µM) | 1 (≈ 3.29 µM) | > 100 | 10 (≈ 32.9 µM) | > 100 | > 100 |
| N#CSCOc1c(Cl)cnc(Cl)c1Cl [III, Thiocyanic acid, [(2,3,5-trichloro-4-pyridinyl)oxy]methyl ester] | 1 (≈ 3.71 µM) | 10 (≈ 37.1 µM) | 1 (≈ 3.71 µM) | 1 (≈ 3.71 µM) | 10 (≈ 37.1 µM) | 10 (≈ 37.1 µM) | 10 (≈ 37.1 µM) | 10 (≈ 37.1 µM) |
| N#CSCOc1nc(Cl)c(Cl)c(OCCl)c1Cl [IV, Thiocyanic acid, [(3,5,6-trichloro-4-(chloromethoxy)-2-pyridinyl)oxy]methylester] | 10 (≈ 29.9 µM) | 10 (≈ 29.9 µM) | 10 (≈ 29.9 µM) | 1 (≈ 2.99 µM) | 10 (≈ 29.9 µM) | 10 (≈ 29.9 µM) | 100 (≈ 299 µM) | 10 (≈ 29.9 µM) |
| N#CSCOc1nc(F)c(Cl)cc1Cl [V, Thiocyanic acid, [(3,5-dichloro-6-fluoro-2-pyridinyl)oxy]methyl ester] | 10 (≈ 39.5 µM) | 10 (≈ 39.5 µM) | 1 (≈ 3.95 µM) | 1 (≈ 3.95 µM) | 10 (≈ 39.5 µM) | 10 (≈ 39.5 µM) | 10 (≈ 39.5 µM) | 10 (≈ 39.5 µM) |
| N#CSCOc1cc(C(Cl)(Cl)Cl)cc(Cl)n1 [VI, Thiocyanic acid [(6-chloro-4-(trichloromethyl)-2-pyridinyl)-oxy]methyl ester] | 10 (≈ 31.4 µM) | 100 (≈ 314 µM) | 1 (≈ 3.14 µM) | 1 (≈ 3.14 µM) | 100 (≈ 314 µM) | 10 (≈ 31.4 µM) | 100 (≈ 314 µM) | 100 (≈ 314 µM) |
